Assay [1] is described as follows: DSS-induced colitis mouse model. It is filed as in vivo, mice. As to conditions: for histopathology screening score: 4% DSS in drinking water. The text has this:
Colitis was induced by DSS ingestion in Swiss Webster female mice from Charles River Laboratories. The mice were 10 and 11 weeks old at the start of the study. Mice were given 4% DSS in the drinking water for a period of 6 days (treated mice), or were given only normal drinking water (control mice). A Disease Activity Index clinical score (DAI) was used, which comprises a combination of measurements including stool quality, occult blood and weight loss. DAI was obtained daily for each mouse beginning one day after DSS treatment. After 6 days, DSS was removed from the drinking water of the treated mice. All mice were monitored by DAI clinical score until sacrifice at either 2, 7 or 10 days from the start of the study. On each of days 2 and 7, four DSS-treated mice and one control mouse were sacrificed. On day 10, four DSS-treated mice and two control mice were sacrificed. For all animals after sacrifice, the colon length was measured. Colon sections were fixed in 10% neutral buffered formalin for histologic analysis or frozen for mRNA extraction.
Histologic index scores were obtained following the method in reference 1. Generally, the colon sections were scored blinded by a pathologist for crypt scores, hyperplastic epithelium, crypt distortion and inflammation.
Daily, each mouse was graded as to a clinical score based on weight loss, stool consistence and intestinal bleeding. Higher scores were assigned for increasing amounts of weight loss, diarrhea and bleeding. The daily score for each mouse was the mean grade obtained from the three results/observations.

The target in a further assay is T1, IL-TIF (Homo sapiens, UniProt Q9GZX6).
T1 sequence (Q9GZX6 13-179 limits assumed): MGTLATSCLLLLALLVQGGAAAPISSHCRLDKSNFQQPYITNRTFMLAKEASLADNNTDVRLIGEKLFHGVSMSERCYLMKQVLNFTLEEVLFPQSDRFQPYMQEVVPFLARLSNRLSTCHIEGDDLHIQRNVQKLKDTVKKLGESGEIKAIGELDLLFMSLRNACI
In words: Inhibition of IL-TIF-induced proliferation of BaF3/CRF2-4/zcytor11 cells by soluble receptors. The following applies: 100 pg/ml IL-TIF. It is filed as cell-based. Here is the method:
BaF3/CRF2-4/zcytor11 cells described herein were spun down and washed in PBS 2 times to ensure the removal of the mIL-3, and then spun a third time and re-suspended in the complete media (RPMI 1640, 10% FBS, 1% GlutaMAX, 1% Sodium Pyruvate), but without mIL-3 (hereinafter referred to as “mIL-3 free media”). Cells were then counted in a hemocytometer. Cells were plated in a 96-well format at 5000 cells per well in a volume of 100 μl per well using the mIL-3 free media.
IL-TIF protein (SEQ ID NO:3) was diluted to 200 pg/ml in mIL-3 free media. Zcytor16-Fc4 fusion protein (described herein) was diluted to 1 μg/ml in the mIL-3 free/IL-TIF media on the top row of the plate, and then diluted serially 1:2 down the remaining 7 rows on the 96-well plate, leaving a volume of 100 μl in each well. This was then added to the 100 μl of cells, for a final IL-TIF concentration of 100 pg/ml in all wells, and final Zcytor16-Fc4 concentrations of approximately […], 0.016, and 0.008 μg/ml in a total assay volume of 200 μl. CRF2-4/zcytor11-Fc4 was diluted to 8 μg/ml in the mIL-3 free/IL-TIF media on the top row of the plate, and then diluted serially 1:2 down the remaining 7 rows on the 96-well plate, leaving a volume of 100 μl in each well. This was then added to the 100 μl of cells, for a final IL-TIF concentration of 100 pg/ml in all wells, and final CRF2-4/zcytor11-Fc4 concentrations of approximately […], 0.25, 0.125 and 0.063 μg/ml, in a total assay volume of 200 The assay plates were incubated at 37° C., 5% CO2 for 4 days at which time Alamar Blue (Accumed, Chicago, Ill.) was added at […]. Plates were again incubated at 37° C., 5% CO2 for 16 hours. Alamar Blue gives a fluourometric readout based on number of live cells, and is thus a direct measurement of cell proliferation in comparison to a negative control. Plates were read on the Wallac Victor 2 1420 Multilabel Counter (Wallac, Turku, Finland) at wavelengths 530 (Excitation) and 590 (Emmssion). […] IL-TIF alone stimulated the cells 13-fold over background.

Two molecules from patent US8524227B2, “Anti-IL-TIF antibodies” (ZymoGenetics, Inc., priority 2002, dated 2013) can be followed below.

For the molecule dextran sulfate sodium [DSS], the histopathology screening score was 8.8 in assay [1] (day 2), 21 in assay [1] (day 7) and 18 in assay [1] (day 10). Moreover, the “colon lengths vs non-treated controls” value in assay [1] (days 7 and 10) is listed as “somewhat shorter”.

B1: CRF2-4/zcytor11-Fc4: secreted heterodimer of extracellular domains of hzcytor11 and CRF2-4, each fused to Fc4 (protein)
chain 1: HAPEDPSDLLQHVKFQSSNFENILTWDSGPEGTPDTVYSIEYKTYGERDWVAKKGCQRITRKSCNLTVETGNLTELYYARVTAVSAGGRSATKMTDRFSSLQHTTLKPPDVTCISKVRSIQMIVHPTPTPIRAGDGHRLTLEDIFHDLFYHLELQVNRTYQMHLGGKQREYEFFGLTPDTEFLGTIMICVPTWAKESAPYMCRVKTLPDRTWTGSGSGSGSEPRSSDKTHTCPPCPAPEAEGAPSVFLFPPKPKDTLMISRTPEVTCVVVDVSHEDPEVKFNWYVDGVEVHNAKTKPREEQYNSTYRVVSVLTVLHQDWLNGKEYKCKVSNKALPSSIEKTISKAKGQPREPQVYTLPPSRDELTKNQVSLTCLVKGFYPSDIAVEWESNGQPENNYKTTPPVLDSDGSFFLYSKLTVDKSRWQQGNVFSCSVMHEALHNHYTQKSLSLSPGKLVPRGSGSGGEYMPME
chain 2: MVPPPENVRMNSVNFKNILQWESPAFAKGNLTFTAQYLSYRIFQDKCMNTTLTECDFSSLSKYGDHTLRVRAEFADEHSDWVNITFCPVDDTIIGPPGMQVEVLDDSLHMRFLAPKIENEYETWTMKNVYNSWTYNVQYWKNGTDEKFQITPQYDFEVLRNLEPWTTYCVQVRGFLPDRNKAGEWSEPVCEQTTHDETVPSGSGSGSGSEPRSSDKTHTCPPCPAPEAEGAPSVFLFPPKPKDTLMISRTPEVTCVVVDVSHEDPEVKFNWYVDGVEVHNAKTKPREEQYNSTYRVVSVLTVLHQDWLNGKEYKCKVSNKALPSSIEKTISKAKGQPREPQVYTLPPSRDELTKNQVSLTCLVKGFYPSDIAVEWESNGQPENNYKTTPPVLDSDGSFFLYSKLTVDKSRWQQGNVFSCSVMHEALHNHYTQKSLSLSPGKGSGGHHHHHH
modifications: left off: small tags and cut ends
notes: secreted heterodimer of extracellular domains of hzcytor11 and CRF2-4, each fused to Fc4
As to B1, in the assay with IL-TIF, the “concentrations completely inhibiting proliferation” value worked out at 8 µg/mL, the “concentrations partially inhibiting proliferation” value was in the range of 0.125 to 4 µg/mL and the “inhibition of the proliferative effect of IL-TIF” value was “much weaker inhibition”. Also, the “inhibition at lowest concentration” value with IL-TIF (63 ng/ml) was “barely detectable”.
